Measurements as given in patent publication US20020045231A1, “Catalytic antibodies which hydrolyze primary amides and methods for eliciting such antibodies” (priority 1999, published 2002).
Square brackets hold non-standard residues; d marks the D form. Peptide text beside a SMILES is read from it. * marks the point of attachment. Sta = CC(C)C[C@H](N)[C@@H](O)CC(=O)O; Isovaleryl = CC(C)CC(=O)*

How the values were obtained:
[1] = system: 13D11; test: Effect of common protease inhibitors on the antibody-catalyzed reaction; assay type: biochemical, mouse; details: inhibitor concentrations sufficient to abolish the respective proteases
Description: Extensive purification of 13D11 was carried out. Monoclonal antibodies were purified from ascites using standard procedures of lipid extraction and ammonium sulfate precipitation followed by column chromatography on protein A, DEAE, Mono Q, and finally Alkyl Superose (Pharmacia, Piscataway, N.J.). Finally, nine common inhibitors of known proteases were tested at concentrations sufficient to completely abolish all for their effect on the antibody-catalyzed reaction.

[2] = system: 13D11; test: Inhibition of 13D11-catalyzed hydrolysis by haptens/inhibitors; assay type: biochemical, mouse
Description: Antibody 13D11 (14.5 μM) was re-screened for activity toward 10 (nominally 500 μM) in the absence and presence of 63 μM (RT-2 hapten)(D/L mixture).
Until this point, 13D11 antibody had been purified by Protein A and DEAE chromatography. To determine whether the activity toward 10 was due to a contaminating enzyme, 13D11 was further purified on a Mono Q column (Pharmacia) by FPLC.
Hapten Ki was determined by quantitating the effect of the concentration of 1b or 1c on the velocity of 13D11 hydrolysis of 2b. Rates obtained at fixed antibody and substrate concentrations were fitted to the equation; V1/Vo=(2[Ab]−[l]−Ki′+{([l]+Ki′−2[Ab])^2+4Ki′2[Ab]}^0.5)/4[Ab], where Vi and Vo are, respectively, the velocities in the presence and absence of hapten, 2[Ab] is the total concentration of antibody combining sites, [l] is hapten concentration, Ki′=Ki/(1+[S]/Km), and Ki is the inhibition constant (S. Cha, Biochem. Pharmacol. 1975, 24, 2177).
Control experiments verified that the hydrolytic activity was not due to a contaminating protease. […] (The (L)-hapten spatially corresponds to the (D)-amide substrate.) The inhibition constant, Ki, was determined by an HPLC assay to be 14.0 (±+1.6) μM.
The substrate specificity of 13D11 was more rigorously determined by monitoring its activity towards the dansylated amides 9 and 10, dansylated esters 11 and 12, acetylated amides 13 and 14, and acetylated esters 15 and 16. The esterolytic activity of 13D11 with the dansylated or acetylated esters (45 μM-1.0 mM) was examined at 25° C. in an assay mixture containing MTEN, 0.1 mM EDTA, 0.1 mM PMSF, 0.01% NaN3, and 13D11 (7-14 μM). Aliquots were removed from the incubation mixtures every hour for 4 hours and kept in ice prior to analysis. The dansylated esters were analyzed by TLC while the acetylated esters were subjected to HPLC analysis. […] The observed esterase activity may be due to a trace of a contaminating enzyme in the antibody preparation.
The amidase activity of 13D11 was likewise examined using the same buffer system as the one mentioned above in the presence of 13D11 (17 μM), and the acetylated amide 13 or 14 (0.5-1.0 mM). […] The ability of 13D11 to discriminate between the dansylated amides 9 and 10 was investigated by determining the formation of the hydrolysis product by TLC. The reaction samples containing 150 μM of either amide 9 or 100 30 μM 13D11, with or without hapten 5 (0.5 mM) in the above buffer system were assayed after 5 days of incubation at 25° C. […] Thus, the activity of the catalytic antibody requires the alkyl linker that was present during immunization, and has a stereospecificity opposite of known natural proteolytic enzymes.
An important control in the examination of the catalytic activity of 13D11 IgG molecule is the retention of the haptenic and substrate binding abilities by its Fab′ fragment. Accordingly, the amidase activities of 13D11 (whole IgG molecule) and the 13D11 Fab′ fragment were compared. The reaction mixtures contained MTEN, 1 mM EDTA, 0.1 mM PMSF, 0.01% NaN3, 150 μM dansylated amide 9 or 100 μM 13D11 (IgG) or Fab′, with or without (assumed) hapten 5 (0.5 mM). […] The esterase activity for the Fab′ fragment was also examined in the above buffer system containing 100 μM of either ester 11 or 12, and 7 μM 13D11 (Fab′). Aliquots were removed at various time points and analyzed by TLC. […] The contaminating enzyme in the antibody solution may have been removed during the purification of the Fab′ fragment.

Molecule | effect on amidolytic activity of 13D11 [1] | further results
CC(C)C[C@H](NC(=O)[C@@H](O)[C@H](N)Cc1ccccc1)C(=O)O [bestatin] | Partial inhibition | 
O=S(=O)(F)Cc1ccccc1 [PMSF] | essentially unaffected | 
O=C(O)CN(CCN(CC(=O)O)CC(=O)O)CC(=O)O [EDTA] | essentially unaffected | 
O=S(=O)(O)CCNC1CCCCC1 [CHES] |  | effect of buffer on hydrolysis of 10 by 13D11 ([2]; CHES buffer tried as an alternative to Tris): inhibit the hydrolysis
CC(C)C[C@H](NP(=O)(O)O[C@@H]1O[C@@H](C)[C@H](O)[C@@H](O)[C@H]1O)C(=O)N[C@@H](Cc1c[nH]c2ccccc12)C(=O)O [phosphoramidon] | essentially unaffected | 
CC(C)C[C@H](NC(=O)[C@H]1O[C@@H]1C(=O)O)C(=O)NCCCCN=C(N)N [Compound E-64] | Partial inhibition | 
CC(=O)N[C@@H](CC(C)C)C(=O)N[C@@H](CC(C)C)C(=O)N[C@H](C=O)CCCNC(=N)N [leupeptin] | essentially unaffected | 
CC(=O)NCCCCCC(=O)NC(Cc1ccccc1)P(C)(=O)O (centres unmarked) [Compound 5] |  | Ki ([2]; 13D11 hydrolysis of 10, HPLC assay, read-out: inhibition constant, Ki): 14 µM; inhibition of esterase activity toward 11 in the 13D11 preparation ([2]; 25° C., MTEN): not inhibited; inhibition of 13D11 amidase activity toward 10 ([2]; hapten 5 0.5 mM, 5 days at 25° C., TLC): inhibition of its amidase activity; inhibition of amidase activities of 13D11 IgG and Fab′ ([2]; hapten 5 0.5 mM, dansylated amide 10): inhibited; inhibition of 13D11 by hapten enantiomers ([2]; hydrolysis of 10): inhibited 13D11
aprotinin | essentially unaffected | 
CC(C)CC(=O)N[C@H](C(=O)N[C@H](C(=O)N[C@@H](CC(C)C)[C@@H](O)CC(=O)N[C@@H](C)C(=O)N[C@@H](CC(C)C)[C@@H](O)CC(=O)O)C(C)C)C(C)C [pepstatin] (Isovaleryl-VV[Sta]A[Sta]-OH) | Partial inhibition | 
